Laboratory results reported in patent publication US4181732A, “1-Branched-alkylcarbonyl-3-(3,5-dihalophenyl)imidazolidine-2,4-diones” (Sumitomo Chemical Company, Limited, priority 1977, dated 1980).

Experiments:
[1] = test system: fungicide-resistant strain of black spot fungus (Alternaria kikuchiana) resistant to Polyoxin; assay: Fungicidal activity test on fungicide-resistant pathogens: mycelial growth inhibition on agar plate, Polyoxin-resistant strain; type: cell-based; details: 96 h, 27° C., 4 days, read-out: Percentage of growth inhibition, fungicide-resistant strain; for inhibition at 1 ppm: 1 ppm active ingredient; for inhibition at 10 ppm: 10 ppm active ingredient
[2] = test system: wild (susceptible) strain of Alternaria kikuchiana; assay: Fungicidal activity test: mycelial growth inhibition on agar plate, wild susceptible strain; type: cell-based; details: 96 h, 27° C., 4 days, read-out: Percentage of growth inhibition, wild susceptible strain; for inhibition at 1 ppm: 1 ppm active ingredient; for inhibition at 10 ppm: 10 ppm active ingredient
[3] = test system: black spot of pear (Alternaria kikuchiana); assay: Protective activity test on black spot of pear; type: in vivo; details: 500 ppm active ingredient; pear var. 20-Seiki, sprayed 7 days before inoculation; no treatment 77.8
[4] = test system: Alternaria leaf spot of apple (Alternaria mali); assay: Protective activity test on Alternaria leaf spot of apple; type: in vivo; details: 500 ppm active ingredient; apple var. Indo, sprayed 6 days before inoculation; no treatment 79.6
[5] = test system: blue mold of orange (Penicillium italicum); assay: Protective activity test on blue mold of orange; type: in vivo; details: orange fruits var. Unshu dipped 1 minute, index 0-5, 7 days after inoculation, no treatment 5.0
Description: Protective activity test on blue mold of orange (Penicillium italicum): Orange fruits (var.: Unshu) were well washed with water and air-dried. Each of the emulsifiable concentrates containing the test compounds was diluted with water to a required concentration and the air-dried orange fruits were dipped in the aqueous solution for 1 minute. After air-drying, the surface of the fruit was inoculated by spraying a spore suspension of Pencillium italicum cultured in a potato agar medium for 5 days. […] The results are shown in the mean value of disease index.

| Structure (SMILES) | Disease severity [3] [%] | Disease severity [4] [%] | Mean value of disease index ([5]; 100 ppm active ingredient) | other results |
| --- | --- | --- | --- | --- |
| CCC(=O)N1CC(=O)N(c2cc(Cl)cc(Cl)c2)C1=O [drawing 37, reference compound] | – | – | – | inhibition at 1 ppm [1]: 45%; inhibition at 10 ppm [1]: 69%; inhibition at 1 ppm [2]: 49%; inhibition at 10 ppm [2]: 68% |
| CC(C)(C)C(=O)N1CC(=O)N(c2cc(Cl)cc(Cl)c2)C1=O [Compound 3] | 7.4 | 9.6 | 0.2 | – |
| CC(C)(C)CC(=O)N1CC(=O)N(c2cc(Cl)cc(Cl)c2)C1=O [Compound 4] | 8.9 | 5.7 | 0.4 | inhibition at 1 ppm [1]: 61%; inhibition at 10 ppm [1]: 93%; inhibition at 1 ppm [2]: 64%; inhibition at 10 ppm [2]: 92% |
| CC(C)CC(=O)N1CC(=O)N(c2cc(Br)cc(Br)c2)C1=O [Compound 5] | 2.6 | 3.0 | 0.1 | – |
| CCC(C)C(=O)N1CC(=O)N(c2cc(Cl)cc(Cl)c2)C1=O (centres unmarked) [Compound 6] | 5.5 | 8.1 | – | – |
| CC(=O)N1CC(=O)N(c2cc(Cl)cc(Cl)c2)C1=O [reference compound] | – | – | – | Mean value of disease index ([5]; 200 ppm active ingredient): 2.8 |
| CCC(=O)N1CC(=O)N(c2cc(Cl)cc(Cl)c2)C1=O [drawing 38, reference compound] | 31.6 | – | – | – |
| CCC(=O)N1CC(=O)N(c2cc(Cl)cc(Cl)c2)C1=O [drawing 43, reference compound] | – | – | – | Mean value of disease index ([5]; 200 ppm active ingredient): 3.0 |
| CC(C)CC(=O)N1CC(=O)N(c2cc(Cl)cc(Cl)c2)C1=O [Compound 2] | 3.0 | 2.4 | 0.0 | inhibition at 1 ppm [1]: 76%; inhibition at 10 ppm [1]: 95%; inhibition at 1 ppm [2]: 78%; inhibition at 10 ppm [2]: 96% |
| CCCC(C)C(=O)N1CC(=O)N(c2cc(Cl)cc(Cl)c2)C1=O (centres unmarked) [Compound 9] | 2.1 | 1.7 | – | – |
| CCC(C)CC(=O)N1CC(=O)N(c2cc(Cl)cc(Cl)c2)C1=O (centres unmarked) [Compound 7] | 3.7 | 4.1 | – | – |
| CC(C)C(=O)N1CC(=O)N(c2cc(Cl)cc(Cl)c2)C1=O [Compound 1] | 4.3 | 7.2 | 0.5 | – |
| CC(C)CCC(=O)N1CC(=O)N(c2cc(Cl)cc(Cl)c2)C1=O [Compound 10] | 9.8 | 9.9 | – | – |
| CCC(CC)C(=O)N1CC(=O)N(c2cc(Cl)cc(Cl)c2)C1=O [Compound 8] | 4.0 | 3.6 | – | – |
| CCC(=O)N1CC(=O)N(c2cc(Cl)cc(Cl)c2)C1=O [drawing 40, reference compound] | – | 36.8 | – | – |
